Values quoted from earlier work, collected in patent US11285134B2, “Presbyopia treatments” (Allergan, Inc., priority 2018, dated 2022).
Where two headings read alike, the source gives them in different places.

Tested on: patients with glaucoma
Details: 1-week treatment

## CC[C@@H]1C(=O)OC[C@@H]1Cc1cncn1C [pilocarpine]
1% dose strength
  mean percent fall in IOP from baseline: 17.5%
4% dose strength
  mean percent fall in IOP from baseline: 26.8%
8% dose strength
  mean percent fall in IOP from baseline: 29.1%
